We go through four compounds from publication PMC8558867, “Development of BromoTag: A “Bump-and-Hole”–PROTAC System to Induce Potent, Rapid, and Selective Degradation of Tagged Target Proteins” (Journal of Medicinal Chemistry, 2021).

Each structure is given as a SMILES string. Read-outs that look alike come from different tables or passages of the source. Bounds are passed on as bounds.

Series [1] has as its system Brd4^BD2 wild-type domain. Further details: method as in PMID 32756710. The conditions noted are these: cited from earlier work.
A further series has as its system MV-4-11 cells. Kind of series: CellTiter-Glo 2.0 cell viability assay, MV-4-11. The conditions noted are these: Homo sapiens, MV4-11. It is filed as cell-based, human. In general terms: In ATP-based viability assays light output follows the ATP content of the culture.
Details of series [2]: method as in earlier work. The conditions noted are these: mice, cited from earlier work.
Another series deals with 22RV1 cells. Kind of series: CellTiter-Glo 2.0 cell viability assay, 22RV1. It is filed as cell-based, human. The note with it: Homo sapiens; 22RV1, 48 Hours, mean ±S.E.M, N = 2; read-out: pEC50 (cell viability) (converted).
A further series has as its system HEK293 cells. Kind of series: CellTiter-Glo 2.0 cell viability assay, HEK293. It is filed as cell-based, human. The note with it: Homo sapiens; HEK293, 48 Hours, mean ±S.E.M, N = 3; read-out: pEC50 (cell viability) (converted).
Series [3] relates to proteome of heterozygous BromoTag-Brd2 HEK293 cells. Kind of series: Multiplexed TMT labeling mass spectrometry proteomics. It is filed as cell-based, human. The note with it: 1 μM, 2 h. As to the method:
To do this, we subjected our heterozygous BromoTag-Brd2 HEK293 cell line to a 1 μM treatment of 46, its non-degrading control 52, or vehicle (DMSO) for 2 h prior to harvest. The harvested lysate was then subjected to multiplexed tandem mass tag (TMT) labeling mass spectrometry to enable quantitative and unbiased analysis of protein levels in each condition.
CRISPR-modified BromoTag-Brd2 HEK293 cells (5 × 10^6) were seeded on a […] 24 h before treatment. The cells were treated with either DMSO, 1 μM AGB1, or 1 μM cis-AGB1. After 2 h of treatment, the cells were washed twice with PBS. The cells were lysed in 150 μL of 100 mM TEAB and 5% (w/v) sodium dodecyl sulfate. The lysate was sonicated for 10 s and then centrifuged at 15,000g for 5 min with the supernatant collected post-centrifugation. The samples were then quantified using a micro-BCA protein assay kit (Thermo Fisher Scientific); 300 μg of each sample was then reduced, alkylated, and then digested using the Strap mini protocol (protifi) as described by the manufacturer (protifi) with some modification. The samples were double-digested with trypsin (1:40) first overnight and then for another 6 h with the same ratio (1:40) in 50 mM TEAB buffer. The peptides were quantified using a quantitative fluorometric peptide assay (Thermo Fisher Scientific). […]

For series [4], the system named is BET proteins: Brd2, Brd3, and Brd4. Kind of series: Single-concentration western blot screen, BET proteins. It is filed as cell-based, human. The note with it: 1 μM, 6 h. As to the method: With this initial library in hand, we set out to evaluate the activity and selectivity of our I-BET-based B&H–PROTACs by treating our heterozygous BromoTag-Brd2 HEK293 cells with 1 μM of compounds 15–17 or 1 μM of control compounds MZP-15 (14), MZ1 (1), and cis-MZ1 for 6 h, which is the sufficient time to achieve effective MZ1-induced BET protein degradation (Figure 4A). The cells were harvested, and the subsequent lysate was analyzed via western blot using antibodies against BET proteins: Brd2, Brd3, and Brd4 (Figure 4A).
All cells were harvested on ice with RIPA lysis and extraction buffer (Thermo Fisher Scientific, 89901) supplemented with protease inhibitor cocktail (Merck, 11697498001) and Benzonase Nuclease (Sigma, E1014) before being stored at −20 °C prior to use. Total protein quantity was determined using the BCA protein assay (#23225, Pierce, Rockford, Illinois). The protein concentration was determined using the BCA assay (Thermo Fisher Scientific, 23225). The samples were then prepared and loaded onto NuPAGE 4–12% bis–tris Midi gels (Thermo Fisher Scientific, WG1403A), followed by the transfer of proteins onto nitrocellulose membranes (EMD Millipore). […] All western blots were analyzed for band intensities using Image Lab from Bio-Rad (LI-COR, Biosciences). The data extracted from these blots were then plotted and analyzed using Prism (v. 8.2.0, GraphPad).

Description for 22RV1 cells: (§1) All cell lines were treated with compounds in duplicate (triplicate for DMSO controls) at a 1× concentration in 0.1% DMSO. The compounds were serially diluted to produce a 7-point, 10-fold titration. The cells were treated with 50:100 μL of compound for a final concentration of 10 μM:10 pM in 0.1% DMSO. At the point of spectrometric analysis, cells were treated with 100 μL of Promega CellTiter-Glo 2.0 Cell Viability Assay reagent. The plates were subjected to an orbital shaker for 2 min to encourage lysis and left for a further 5 min to reach peak luminescence. Luminescence was then recorded on a BMG Labtech PHERAstar luminescence plate reader with recommended settings. Data extracted from this analysis was analyzed with GraphPad Prism (v. 8.2.0, GraphPad) and normalized to the DMSO vehicle control. The EC50 values were derived from these plots.
Description for MV-4-11 cells: as §1

As to `CC[C@@H](C(=O)OC)[C@@H]1N=C(c2ccc(Cl)cc2)c2c(sc(C)c2C)-n2c(C)nnc21` [ET-JQ1-OMe], the “binding to the wild-type domain” value in series [1] is “undetectable binding”.
As for `Cc1ncsc1-c1ccc(CNC(=O)[C@@H]2C[C@@H](O)CN2C(=O)[C@@H](NC(=O)COCCOCCOCCNC(=O)C[C@@H]2N=C(c3ccc(Cl)cc3)c3c(sc(C)c3C)-n3c(C)nnc32)C(C)(C)C)cc1` [MZ1 (1)], the EC50 is 25.1 nM with MV-4-11 cells (MV-4-11, 24 Hours, mean ±S.E.M, N = 2, read-out: pEC50 (cell viability) (converted)); about 20 nM in the series on MV-4-11 cells (MV-4-11 cells, read-out: EC50 (cell viability)); 5010 nM in the series on 22RV1 cells. Moreover, the “T1/2” value is given as 1.04 h in series [2] (IV (5 mg/kg), 5 mg/kg) and 2.95 h in series [2] (SC (5 mg/kg)).
As to `CC[C@@H](C(=O)OCCOCCOCCOCC(=O)N[C@H](C(=O)N1C[C@@H](O)C[C@H]1C(=O)NCc1ccc(-c2scnc2C)cc1)C(C)(C)C)[C@@H]1N=C(c2ccc(Cl)cc2)c2c(sc(C)c2C)-n2c(C)nnc21` [cis-AGB1 (52), (S)-13-((2S,4S)-4-Hydroxy-2-((4-(4-methylthiazol-5-yl)benzyl)carbamoyl)pyrrolidine-1-carbonyl)-14,14-dimethyl-11-oxo-3,6,9-trioxa-12-azapentadecyl (R)-2-((S)-4-(4-chlorophenyl)-2,3,9-trimethyl-6H-thieno[3,2-f][1,2,4]triazolo[4,3-a][1,4]diazepin-6-yl)butanoate], the EC50 in the series with HEK293 cells was over 10000 nM. Further, the “proteins significantly degraded among the 6621 proteins quantified” value in series [3] is recorded as “No significant degradation”.
As to `COc1ccc2c(c1)C(c1ccc(Cl)cc1)=NC(CC(=O)NCCOCCOCCOCC(=O)N[C@H](C(=O)N1C[C@H](O)C[C@H]1C(=O)NCc1ccc(-c3scnc3C)cc1)C(C)(C)C)c1nnc(C)n1-2` (stereo partly drawn) [compound 14, (2S,4R)-1-((2S)-2-(tert-Butyl)-17-(6-(4-chlorophenyl)-8-methoxy-1-methyl-4H-benzo[f][1,2,4]triazolo[4,3-a][1,4]diazepin-4-yl)-4,16-dioxo-6,9,12-trioxa-3,15-diazaheptadecanoyl)-4-hydroxy-N-(4-(4-methylthiazol-5-yl)benzyl)pyrrolidine-2-carboxamide], in series [4], the “degradation activity across all the three BET family members relative to 1” value is on record as “significant lower activity”.
